The values below come from patent US9255257B2, “PmST1 mutants for chemoenzymatic synthesis of sialyl lewis X compounds” (THE REGENTS OF THE UNIVERSITY OF CALIFORNIA, priority 2011, dated 2016).

Test [1] addresses Pasteurella multocida PmST1 mutant H311A (Pasteurella multocida, UniProt Q15KI8, H311A). The experiment in a line: α2-3-sialidase activity, Neu5Acα2-3LacβMU as substrate. The format is biochemical. Set-up: previously obtained mutant (Ni et al. 2006). Conditions: result in words. The protocol: (§1) Kinetic Assays. […] The apparent kinetic parameters were obtained by fitting the experimental data (the average values of duplicate assay results) into the Michaelis-Menten equation using Grafit 5.0.
(§2) All the sialidase and α2-3-sialyltransferase assays were performed in an HPLC system. Reactions were stopped by adding 10 μL of ethanol. After necessary dilutions were performed to adjust the concentrations of the fluorescent-labeled compounds, the samples were then kept on ice until aliquots of 8 μL were injected and analyzed by a Shimadzu LC-6AD system equipped with a membrane on-line degasser, a temperature control unit, and a fluorescence detector (Shimadzu RF-10AXL). A reverse-phase Premier C18 column (250×4.6 mm i.d., 5 μm particle size, Shimadzu) protected with a C18 guard column cartridge was used. The mobile phase was 25% acetonitrile. The fluorescent compounds LacβMU and Neu5Acα2-3LacβMU were detected by excitation at 325 nm and emission at 372 nm.

The target of test [2] is Pasteurella multocida PmST1 mutant D141A (Pasteurella multocida, UniProt Q15KI8, D141A). The test is described as above. In kind it is biochemical. Set-up: previously obtained mutant (Ni et al. 2006). Conditions: apparent, MES pH 5.5, 37° C., 60 min. The protocol:
as §1, §2

The target of test [3] is Pasteurella multocida PmST1 mutant M144H of SEQ ID NO: 13 (M120H of Δ24PmST1, SEQ ID NO: 5) (Pasteurella multocida, UniProt Q15KI8, M144H). The description is as above. In kind it is biochemical. Conditions: apparent, MES pH 5.5, 37° C., 15 min. The protocol: (§3) Site-directed mutagenesis, expression and purification of PmST1 mutants. Site-directed mutagenesis was performed using the QuikChange multi-site-directed mutagenesis kit from Stratagene according to the manufacturer's protocol. The primers used were 5′-[…]-3′ (SEQ ID NO:35) for M144D; 5′-[…]a[…] -3′ (SEQ ID NO:36) for M144H; 5′-[…]-3′ (SEQ ID NO:37) for A35D; and 5′-[…]-3′ (SEQ ID NO:38) for A35H. The expression and purification of the mutants were performed as previously described for the WT PmST1 .
(§4) Kinetics of the α2-3-sialidase activity of PmST1 mutants. The reactions were performed in duplicate in a total volume of 10 μL at 37° C. for 60 min (M144D) or 15 min (M144H) in MES buffer (100 mM, pH 5.5) containing Neu5Acα2-3LacβMU (0.4, 1, 2, 4, 10, 20, 40 and 60 mM) and an enzyme (M144H, 1.36 mg mL^−1 or M144D, 1.05 mg mL^−1). Sample treatment after the reaction and analysis were carried out by HPLC similar to that described above for the α2-3-sialyltransferase assays.

For test [4], the target named is Pasteurella multocida PmST1 mutant M144D of SEQ ID NO: 13 (M120D of Δ24PmST1, SEQ ID NO: 3) (Pasteurella multocida, UniProt Q15KI8, M144D). The test is described as above. The format is biochemical. Conditions: apparent, MES pH 5.5, 37° C., 60 min. The protocol:
as §3, §4

For test [5], the target named is Pasteurella multocida PmST1 mutant E271F of SEQ ID NO: 13 (E247F of Δ24PmST1, SEQ ID NO: 7) (Pasteurella multocida, UniProt Q15KI8, E271F). The description is as above. The format is biochemical. Conditions: apparent, MES pH 5.5, 37° C., 1 min. The protocol: (§5) Site-directed mutagenesis. Site-directed mutagenesis was carried out using the QuikChange multi-site-directed mutagenesis kit from Stratagene according to the manufacturer's protocol. The primers used were 5′-[…] -3′ (SEQ ID NO:32) for E271F and 5′-[…]-3′ (SEQ ID NO:33) for R313Y. The sites of mutations are underlined.
(§6) Protein Expression and Purification. The plasmids containing the mutant genes were transformed into E. coli BL21 (DE3). The E. coli cells were cultured in LB-rich media (10 g L^−1 tryptone, 5 g L^−1 yeast extract, and 10 g L^−1 NaCl) supplemented with ampicillin (100 μg mL^−1). Overexpression of the mutant proteins was achieved by adding 0.1 mM of isopropyl-1-thio-β-D-galactopyranoside (IPTG) to the E. coli culture when its OD600 nm reached 0.8. The incubation of the induced culture was performed at 37° C. for 3 h with vigorous shaking at 250 rpm in a C25KC incubator shaker (New Brunswick Scientific, Edison, N.J.).
(§7) His6 (SEQ ID NO:34) tagged mutant proteins were purified from the cell lysate. To obtain the cell lysate, the cell pellet harvested by centrifugation at 4000 rpm for 2 h was resuspended in 20 mL (for cells obtained from one liter culture) of lysis buffer (pH 8.0, 100 mM Tris-HCl containing 0.1% Triton X-100). To lyse the cells, lysozyme (50 μg mL^−1) and DNaseI (3 μg mL^−1) were then added to the resuspended cells followed by shaking at 37° C. for 60 min. The cell lysate was obtained as the supernatant after centrifugation at 11,000 rpm for 20 min. […]
(§8) All the sialidase and α2-3-sialyltransferase assays were performed in an HPLC system. […] After necessary dilutions were performed to adjust the concentrations of the fluorescent-labeled compounds, the samples were then kept on ice until aliquots of 8 μL were injected and analyzed by a Shimadzu LC-6AD system equipped with a membrane on-line degasser, a temperature control unit, and a fluorescence detector (Shimadzu RF-10AXL). […] The fluorescent compounds LacβMU and Neu5Acα2-3LacβMU were detected by excitation at 325 nm and emission at 372 nm.

Test [6] has as its target Pasteurella multocida PmST1 double mutant E271F/R313Y of SEQ ID NO: 13 (E247F/R289Y of Δ24PmST1, SEQ ID NO: 11) (Pasteurella multocida, UniProt Q15KI8, E271F/R313Y). The description is as above. The format is biochemical. Conditions: apparent, MES pH 5.5, 37° C., 20 min. The protocol:
as §5, §6, §7, §8

Test [7] has as its target Pasteurella multocida PmST1 mutant R313Y of SEQ ID NO: 13 (R289Y of Δ24PmST1, SEQ ID NO: 9) (Pasteurella multocida, UniProt Q15KI8, R313Y). The description is as above. The format is biochemical. Conditions: apparent, MES pH 5.5, 37° C., 25 min. The protocol:
as §5, §6, §7, §8

The target in test [8] is Pasteurella multocida α2-3-sialyltransferase 1 (PmST1), wild type (WT), SEQ ID NO: 13 (Pasteurella multocida, UniProt Q15KI8). Conditions: apparent, α2-3-sialidase; cited from earlier work.

SMILES strings stand for the structures.

As usually defined, the kcat is the number of substrate molecules converted per active site and unit of time at saturation. What is called Km is the concentration of substrate that gives half-maximal velocity. In the case of `CC(=O)N[C@H]1[C@H]([C@H](O)[C@H](O)CO)O[C@@](O[C@H]2[C@@H](O)[C@@H](CO)O[C@@H](O[C@H]3[C@H](O)[C@@H](O)[C@H](Oc4ccc5c(C)cc(=O)oc5c4)O[C@@H]3CO)[C@@H]2O)(C(=O)O)C[C@@H]1O` [Neu5Acα2-3LacβMU], the “kinetics of the α2-3-sialidase activity” value in test [1] was “too low to obtain the kinetic data”. The kcat entry was “(1.9 ± 0.1) × 10^−2 s^−1” in test [2]; “(2.7 ± 0.2) × 10^−2 s^−1” in test [3]; “(3.5 ± 0.1) × 10^−2 s^−1” in test [4]; 0.92 ± 0.04 s⁻¹ in test [5]; 0.83 ± 0.08 s⁻¹ in test [6]; 0.18 ± 0.01 s⁻¹ in test [7]. In test [8], the Km was 24 mM.
